Source: US9738644B2, “Chemical compounds, compositions and methods for kinase modulation” (Infinity Pharmaceuticals, Inc., priority 2010, dated 2017)
Where two headings read alike, the source gives them in different places.

Legend:
[1] = biological target: T1, PI3K δ (Homo sapiens, UniProt O00329); experiment: In vitro PI3K δ inhibition assay; assay type: biochemical
T1 construct: purchased Upstate
Method: (§1) Class I PI3-Ks can be either purchased (p110α/p85α, p110β/p85α, p110δ/p85α from Upstate, and p110γ from Sigma) or expressed as previously described (Knight et al., 2004). IC50 values are measured using either a standard TLC assay for lipid kinase activity (described below) or a high-throughput membrane capture assay. Kinase reactions are performed by preparing a reaction mixture containing kinase, inhibitor (2% DMSO final concentration), buffer (25 mM HEPES, pH 7.4, 10 mM MgCl2), and freshly sonicated phosphatidylinositol (100 μg/ml). Reactions are initiated by the addition of ATP containing 10 μCi of γ-32P-ATP to a final concentration of 10 or 100 μM and allowed to proceed for 5 minutes at room temperature. For TLC analysis, reactions are then terminated by the addition of 105 μl 1N HCl followed by 160 μl CHCl3:MeOH (1:1). The biphasic mixture is vortexed, briefly centrifuged, and the organic phase is transferred to a new tube using a gel loading pipette tip precoated with CHCl3. This extract is spotted on TLC plates and developed for 3-4 hours in a 65:35 solution of n-propanol:1M acetic acid. The TLC plates are then dried, exposed to a phosphorimager screen (Storm, Amersham), and quantitated. For each compound, kinase activity is measured at 10-12 inhibitor concentrations representing two-fold dilutions from the highest concentration tested (typically, 200 μM). […] Other commercial kits or systems for assaying PI3-K activities are available. The commercially available kits or systems can be used to screen for inhibitors and/or agonists of PI3-Ks including, but not limited to, PI 3-Kinase α, β, δ, and γ. An exemplary system is PI 3-Kinase (human) HTRF™ Assay from Upstate. […] Briefly, the assay is a time resolved FRET assay that indirectly measures PIP3 product formed by the activity of a PI3-K. The kinase reaction is performed in a microtiter plate (e.g., a 384 well microtiter plate). The total reaction volume is approximately 20 μl per well. In the first step, each well receives 2 μl of test compound in 20% dimethylsulphoxide resulting in a 2% DMSO final concentration. Next, approximately 14.5 μl of a kinase/PIP2 mixture (diluted in 1× reaction buffer) is added per well for a final concentration of 0.25-0.3 μg/ml kinase and 10 μM PIP2. The plate is sealed and incubated for 15 minutes at room temperature. To start the reaction, 3.5 μl of ATP (diluted in 1× reaction buffer) is added per well for a final concentration of 10 μM ATP. The plate is sealed and incubated for 1 hour at room temperature. The reaction is stopped by adding 5 μl of Stop Solution per well and then 5 μl of Detection Mix is added per well. The plate is sealed, incubated for 1 hour at room temperature, and then read on an appropriate plate reader. Data is analyzed and IC50s are generated using GraphPad Prism 5.

[2] = biological target: T2, PI3K γ (Homo sapiens, UniProt P48736); experiment: In vitro PI3K γ inhibition assay; assay type: biochemical
T2 construct: purchased Sigma
Method: as §1

[3] = biological target: T3, PI3K α (Homo sapiens, UniProt P42336); experiment: In vitro PI3K α inhibition assay; assay type: biochemical
T3 construct: purchased Upstate
Method: (§2) Class I PI3-Ks can be either purchased (p110α/p85α, p110β/p85α, p110δ/p85α from Upstate, and p110γ from Sigma) or expressed as previously described (Knight et al., 2004). IC50 values are measured using either a standard TLC assay for lipid kinase activity (described below) or a high-throughput membrane capture assay. Kinase reactions are performed by preparing a reaction mixture containing kinase, inhibitor (2% DMSO final concentration), buffer (25 mM HEPES, pH 7.4, 10 mM MgCl2), and freshly sonicated phosphatidylinositol (100 μg/ml). Reactions are initiated by the addition of ATP containing 10 μCi of γ-32P-ATP to a final concentration of 10 or 100 μM and allowed to proceed for 5 minutes at room temperature. For TLC analysis, reactions are then terminated by the addition of 105 μl 1N HCl followed by 160 μl CHCl3:MeOH (1:1). The biphasic mixture is vortexed, briefly centrifuged, and the organic phase is transferred to a new tube using a gel loading pipette tip precoated with CHCl3. This extract is spotted on TLC plates and developed for 3-4 hours in a 65:35 solution of n-propanol:1M acetic acid. The TLC plates are then dried, exposed to a phosphorimager screen (Storm, Amersham), and quantitated. For each compound, kinase activity is measured at 10-12 inhibitor concentrations representing two-fold dilutions from the highest concentration tested (typically, 200 μM).
(§3) Other commercial kits or systems for assaying PI3-K activities are available. The commercially available kits or systems can be used to screen for inhibitors and/or agonists of PI3-Ks including, but not limited to, PI 3-Kinase α, β, δ, and γ. An exemplary system is PI 3-Kinase (human) HTRF™ Assay from Upstate. […] Briefly, the assay is a time resolved FRET assay that indirectly measures PIP3 product formed by the activity of a PI3-K. The kinase reaction is performed in a microtiter plate (e.g., a 384 well microtiter plate). The total reaction volume is approximately 20 μl per well. In the first step, each well receives 2 μl of test compound in 20% dimethylsulphoxide resulting in a 2% DMSO final concentration. Next, approximately 14.5 μl of a kinase/PIP2 mixture (diluted in 1× reaction buffer) is added per well for a final concentration of 0.25-0.3 μg/ml kinase and 10 μM PIP2. The plate is sealed and incubated for 15 minutes at room temperature. To start the reaction, 3.5 μl of ATP (diluted in 1× reaction buffer) is added per well for a final concentration of 10 μM ATP. The plate is sealed and incubated for 1 hour at room temperature. The reaction is stopped by adding 5 μl of Stop Solution per well and then 5 μl of Detection Mix is added per well. The plate is sealed, incubated for 1 hour at room temperature, and then read on an appropriate plate reader. Data is analyzed and IC50s are generated using GraphPad Prism 5.

[4] = biological target: T4, PI3K β (Homo sapiens, UniProt P42338); experiment: In vitro PI3K β inhibition assay; assay type: biochemical
T4 construct: purchased Upstate
Method: as §2, §3

[5] = system: Balb/c splenic B cells; experiment: B cell activation and proliferation assay (Alamar Blue); assay type: cell-based; settings: Mus musculus
Method: The ability of one or more subject compounds to inhibit B cell activation and proliferation is determined according to standard procedures known in the art. For example, an in vitro cellular proliferation assay is established that measures the metabolic activity of live cells. The assay is performed in a 96 well microtiter plate using Alamar Blue reduction. Balb/c splenic B cells are purified over a Ficoll-Paque™ PLUS gradient followed by magnetic cell separation using a MACS B cell Isolation Kit (Miletenyi). Cells are plated in 90 μl at 50,000 cells/well in B Cell Media (RPMI+10% FBS+Penn/Strep+50 μM bME+5 mM HEPES). A compound disclosed herein is diluted in B Cell Media and added in a 10 μl volume. Plates are incubated for 30 min at 37° C. and 5% CO2 (0.2% DMSO final concentration). A 50 μl B cell stimulation cocktail is then added containing either 10 μg/ml LPS or 5 μg/ml F(ab′)2 Donkey anti-mouse IgM plus 2 ng/ml recombinant mouse IL4 in B Cell Media. Plates are incubated for 72 hours at 37° C. and 5% CO2. A volume of 15 μL of Alamar Blue reagent is added to each well and plates are incubated for 5 hours at 37° C. and 5% CO2. Alamar Blue fluoresce is read at 560Ex/590Em, and IC50 or EC50 values are calculated using GraphPad Prism 5.

[6] = system: B6.Sle1z.Sle3z model; settings: cited from earlier work
[7] = PBS pH 7.4, 37° C., 24 hours; cited from earlier work
[8] = reference compounds, 5 μM; cited from earlier work
[9] = read-out: B cell proliferation EC50
[10] = read-out: B cell proliferation EC50 (nM)

T3 sequence (P42336 whole entry): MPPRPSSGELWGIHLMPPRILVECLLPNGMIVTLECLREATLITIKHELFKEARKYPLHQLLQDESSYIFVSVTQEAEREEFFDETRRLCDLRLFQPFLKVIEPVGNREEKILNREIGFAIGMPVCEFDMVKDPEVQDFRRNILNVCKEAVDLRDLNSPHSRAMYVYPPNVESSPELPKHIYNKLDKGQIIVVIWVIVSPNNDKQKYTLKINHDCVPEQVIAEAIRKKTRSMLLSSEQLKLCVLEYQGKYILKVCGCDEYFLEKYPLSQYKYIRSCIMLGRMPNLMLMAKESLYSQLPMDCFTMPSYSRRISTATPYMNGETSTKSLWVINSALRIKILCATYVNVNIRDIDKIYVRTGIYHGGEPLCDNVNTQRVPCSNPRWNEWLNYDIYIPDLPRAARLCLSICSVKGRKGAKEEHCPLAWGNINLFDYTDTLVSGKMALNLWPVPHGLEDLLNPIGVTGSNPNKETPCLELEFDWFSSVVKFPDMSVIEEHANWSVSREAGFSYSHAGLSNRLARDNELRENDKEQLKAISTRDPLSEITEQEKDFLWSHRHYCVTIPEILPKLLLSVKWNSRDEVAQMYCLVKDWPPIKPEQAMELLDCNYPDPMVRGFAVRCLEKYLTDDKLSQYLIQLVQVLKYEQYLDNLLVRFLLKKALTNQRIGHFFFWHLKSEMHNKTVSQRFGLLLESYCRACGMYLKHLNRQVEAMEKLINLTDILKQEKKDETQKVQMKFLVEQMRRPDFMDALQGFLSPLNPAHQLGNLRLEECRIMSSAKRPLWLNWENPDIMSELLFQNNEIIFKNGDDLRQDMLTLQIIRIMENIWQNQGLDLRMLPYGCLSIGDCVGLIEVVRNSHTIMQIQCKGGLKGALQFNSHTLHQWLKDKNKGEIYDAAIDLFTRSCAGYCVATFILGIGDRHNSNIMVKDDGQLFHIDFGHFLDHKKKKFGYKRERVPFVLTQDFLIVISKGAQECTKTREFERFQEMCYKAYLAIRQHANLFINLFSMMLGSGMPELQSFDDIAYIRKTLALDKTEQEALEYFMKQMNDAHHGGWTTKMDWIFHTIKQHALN
T3 sequence (P27986 whole entry partner): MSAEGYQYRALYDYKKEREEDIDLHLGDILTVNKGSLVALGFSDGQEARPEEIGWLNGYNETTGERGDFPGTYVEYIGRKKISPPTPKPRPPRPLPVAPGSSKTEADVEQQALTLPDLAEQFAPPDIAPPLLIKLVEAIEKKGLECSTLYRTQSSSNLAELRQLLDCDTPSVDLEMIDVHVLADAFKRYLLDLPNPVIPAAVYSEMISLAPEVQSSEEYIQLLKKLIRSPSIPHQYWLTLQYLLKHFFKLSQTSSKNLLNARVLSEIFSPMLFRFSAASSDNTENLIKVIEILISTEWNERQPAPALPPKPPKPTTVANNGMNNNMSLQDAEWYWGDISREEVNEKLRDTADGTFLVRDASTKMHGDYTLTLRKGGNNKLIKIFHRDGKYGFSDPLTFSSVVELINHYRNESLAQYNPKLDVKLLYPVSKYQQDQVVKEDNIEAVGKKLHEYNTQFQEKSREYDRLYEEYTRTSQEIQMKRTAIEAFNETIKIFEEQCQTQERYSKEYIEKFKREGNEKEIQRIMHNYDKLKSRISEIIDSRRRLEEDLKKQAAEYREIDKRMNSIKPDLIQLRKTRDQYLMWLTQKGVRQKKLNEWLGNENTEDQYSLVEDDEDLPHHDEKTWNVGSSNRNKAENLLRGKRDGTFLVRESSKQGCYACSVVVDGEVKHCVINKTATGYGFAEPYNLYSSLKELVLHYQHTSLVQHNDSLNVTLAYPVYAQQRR
T2 sequence (P48736 whole entry): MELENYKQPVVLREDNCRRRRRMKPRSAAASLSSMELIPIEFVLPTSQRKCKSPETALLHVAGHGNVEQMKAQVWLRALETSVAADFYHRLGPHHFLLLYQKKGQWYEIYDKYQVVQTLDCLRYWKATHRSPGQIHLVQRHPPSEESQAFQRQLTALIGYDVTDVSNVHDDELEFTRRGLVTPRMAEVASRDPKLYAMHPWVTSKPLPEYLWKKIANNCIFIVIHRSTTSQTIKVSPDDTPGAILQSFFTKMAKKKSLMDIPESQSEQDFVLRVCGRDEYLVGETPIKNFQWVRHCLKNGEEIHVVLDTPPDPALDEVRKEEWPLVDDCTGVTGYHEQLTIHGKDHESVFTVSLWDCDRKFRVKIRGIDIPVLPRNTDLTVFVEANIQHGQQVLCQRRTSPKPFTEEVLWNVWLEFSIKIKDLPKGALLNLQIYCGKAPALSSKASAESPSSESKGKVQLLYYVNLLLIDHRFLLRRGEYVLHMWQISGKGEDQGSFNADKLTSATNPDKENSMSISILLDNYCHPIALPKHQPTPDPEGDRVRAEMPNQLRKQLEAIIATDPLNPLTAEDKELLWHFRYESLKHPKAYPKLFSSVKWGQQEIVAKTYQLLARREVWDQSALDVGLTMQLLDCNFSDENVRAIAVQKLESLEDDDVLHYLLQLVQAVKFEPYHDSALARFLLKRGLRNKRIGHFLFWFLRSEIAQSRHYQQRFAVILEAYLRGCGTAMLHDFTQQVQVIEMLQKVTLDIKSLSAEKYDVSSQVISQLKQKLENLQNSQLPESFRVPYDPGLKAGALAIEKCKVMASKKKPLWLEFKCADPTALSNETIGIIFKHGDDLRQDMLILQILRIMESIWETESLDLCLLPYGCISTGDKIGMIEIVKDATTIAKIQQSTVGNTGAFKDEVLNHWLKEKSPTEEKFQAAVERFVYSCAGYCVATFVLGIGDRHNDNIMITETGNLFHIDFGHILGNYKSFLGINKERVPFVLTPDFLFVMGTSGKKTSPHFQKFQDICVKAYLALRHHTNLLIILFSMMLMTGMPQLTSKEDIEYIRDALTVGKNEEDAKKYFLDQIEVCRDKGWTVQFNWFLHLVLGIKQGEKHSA
T1 sequence (O00329 whole entry): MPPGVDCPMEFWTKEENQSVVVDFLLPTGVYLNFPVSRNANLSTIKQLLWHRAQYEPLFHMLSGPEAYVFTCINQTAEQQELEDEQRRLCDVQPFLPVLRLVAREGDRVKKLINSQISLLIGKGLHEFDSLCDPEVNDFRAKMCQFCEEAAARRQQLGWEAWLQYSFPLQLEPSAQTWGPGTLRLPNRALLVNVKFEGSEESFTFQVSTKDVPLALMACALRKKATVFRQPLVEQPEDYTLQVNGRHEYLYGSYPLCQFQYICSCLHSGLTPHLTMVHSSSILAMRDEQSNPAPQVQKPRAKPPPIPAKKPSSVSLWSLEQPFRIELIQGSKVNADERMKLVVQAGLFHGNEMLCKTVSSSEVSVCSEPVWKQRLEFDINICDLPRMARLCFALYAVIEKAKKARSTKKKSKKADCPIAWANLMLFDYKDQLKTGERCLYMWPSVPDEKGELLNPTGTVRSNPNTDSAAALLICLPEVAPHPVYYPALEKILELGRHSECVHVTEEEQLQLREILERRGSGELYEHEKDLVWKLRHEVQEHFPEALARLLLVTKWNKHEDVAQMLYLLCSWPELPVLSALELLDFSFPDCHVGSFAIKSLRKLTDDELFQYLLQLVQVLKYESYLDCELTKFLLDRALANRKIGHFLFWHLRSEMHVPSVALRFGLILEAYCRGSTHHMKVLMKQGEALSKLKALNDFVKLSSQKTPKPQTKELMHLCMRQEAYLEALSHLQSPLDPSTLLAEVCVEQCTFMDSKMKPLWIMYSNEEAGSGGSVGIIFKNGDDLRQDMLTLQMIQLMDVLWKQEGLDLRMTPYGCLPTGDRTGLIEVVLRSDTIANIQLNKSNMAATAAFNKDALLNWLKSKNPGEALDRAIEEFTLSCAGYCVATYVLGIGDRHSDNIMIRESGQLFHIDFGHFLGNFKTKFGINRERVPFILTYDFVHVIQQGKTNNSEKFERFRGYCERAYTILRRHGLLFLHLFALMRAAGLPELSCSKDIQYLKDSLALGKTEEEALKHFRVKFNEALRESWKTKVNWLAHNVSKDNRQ
T1 sequence (P27986 whole entry partner): as the sequence (P27986 whole entry partner) above
T4 sequence (P42338 whole entry): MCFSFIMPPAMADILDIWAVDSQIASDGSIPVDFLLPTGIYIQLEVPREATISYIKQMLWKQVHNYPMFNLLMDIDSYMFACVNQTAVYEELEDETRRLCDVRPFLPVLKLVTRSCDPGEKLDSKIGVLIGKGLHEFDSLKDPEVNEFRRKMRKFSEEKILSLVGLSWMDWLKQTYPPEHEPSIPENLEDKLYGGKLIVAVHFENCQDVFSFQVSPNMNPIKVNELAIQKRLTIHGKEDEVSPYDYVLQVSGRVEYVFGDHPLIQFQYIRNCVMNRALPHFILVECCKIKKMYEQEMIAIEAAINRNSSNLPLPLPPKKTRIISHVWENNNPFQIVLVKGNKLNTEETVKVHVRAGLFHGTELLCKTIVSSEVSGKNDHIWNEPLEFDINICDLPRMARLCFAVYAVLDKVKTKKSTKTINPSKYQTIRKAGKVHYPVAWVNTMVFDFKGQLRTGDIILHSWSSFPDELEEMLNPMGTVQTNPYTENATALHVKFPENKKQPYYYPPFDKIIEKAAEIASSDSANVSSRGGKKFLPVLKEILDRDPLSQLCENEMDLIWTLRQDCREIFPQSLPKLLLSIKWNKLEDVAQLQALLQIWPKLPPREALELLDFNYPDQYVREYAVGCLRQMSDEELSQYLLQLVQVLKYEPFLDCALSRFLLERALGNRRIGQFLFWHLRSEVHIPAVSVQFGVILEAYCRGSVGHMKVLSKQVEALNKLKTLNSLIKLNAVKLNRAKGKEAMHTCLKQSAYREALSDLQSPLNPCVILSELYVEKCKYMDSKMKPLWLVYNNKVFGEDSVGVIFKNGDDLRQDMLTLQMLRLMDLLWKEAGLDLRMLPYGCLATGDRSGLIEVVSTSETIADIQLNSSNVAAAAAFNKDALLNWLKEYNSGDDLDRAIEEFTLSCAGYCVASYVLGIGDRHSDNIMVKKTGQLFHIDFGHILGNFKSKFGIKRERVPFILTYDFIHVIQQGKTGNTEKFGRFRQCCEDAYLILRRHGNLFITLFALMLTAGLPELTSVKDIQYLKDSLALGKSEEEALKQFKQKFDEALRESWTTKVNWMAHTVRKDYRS
T4 sequence (P27986 whole entry partner): as the sequence (P27986 whole entry partner) above

IC50 [1] [nM]	IC50 [2] [nM]	IC50 [3] [nM]	IC50 [4] [nM]	Compound	EC50 [5, 9] [nM]	EC50 [5, 10] [nM]	lupus symptoms [6]	chemical stability [7]	plasma stability [8]
< 100	< 100	< 10000	< 10000	C[C@@H](Nc1ncnc2[nH]cnc12)c1cc2cccc(-c3cccnc3)c2c(=O)n1-c1ccccc1 (stereo in doubt) [Compound 7]	< 100				
< 100	< 100	< 10000	< 10000	CCc1cccc2cc(C(C)Nc3ncnc4[nH]cnc34)n(-c3ccccc3)c(=O)c12 (stereo in doubt) [Compound 9, (S)-3-(1-((9H-purin-6-yl)amino)ethyl)-8-ethyl-2-phenylisoquinolin-1(2H)-one]	< 100				
< 100	< 100	> 10000	< 10000	CC(Nc1ncnc2[nH]cnc12)c1cc2cccc(C#N)c2c(=O)n1-c1ccccc1 (stereo in doubt) [Compound 16, (S)-3-(1-((9H-purin-6-yl)amino)ethyl)-1-oxo-2-phenyl-1,2-dihydroisoquinoline-8-carbonitrile]	< 100				
< 10000	< 10000	> 10000	> 10000	C[C@@H](Nc1ncnc2[nH]cnc12)c1cc2cccc(N(C)C)c2c(=O)n1-c1ccccc1 (stereo in doubt) [Compound 17]	< 100				
< 100	< 100	> 10000	> 10000	C[C@@H](Nc1ncnc2[nH]cnc12)c1cc2cccc(-c3cc[nH]n3)c2c(=O)n1-c1ccccc1 (stereo in doubt) [Compound 18]	< 100				
< 100	< 100	> 10000	> 10000	C[C@@H](Nc1ncnc2[nH]cnc12)c1cc2cccc(-c3cnn(C)c3)c2c(=O)n1-c1ccccc1 (stereo in doubt) [Compound 19]	< 100				
< 100	< 1000	< 10000	< 10000	C[C@@H](Nc1ncnc2[nH]cnc12)c1cc2cccc(-c3cnn(C)c3)c2c(=O)n1C1CC1 (stereo in doubt) [Compound 20]	< 100				
< 100	< 100	< 10000	< 10000	C[C@@H](Nc1ncnc2[nH]cnc12)c1cc2cccc(-c3ccncc3)c2c(=O)n1-c1ccccc1 (stereo in doubt) [Compound 21]	< 100				
< 100	< 100	< 1000	< 1000	C[C@@H](Nc1ncnc2[nH]cnc12)c1cc2cccc(-c3cn[nH]c3)c2c(=O)n1C1CC1 [Compound 12]	< 100				

More lines, now with the values behind:

Compound	IC50 [1] [nM]	IC50 [2] [nM]	IC50 [3] [nM]	IC50 [4] [nM]	EC50 [5, 9] [nM]	EC50 [5, 10] [nM]	lupus symptoms [6]	chemical stability [7]	plasma stability [8]
C=Cc1cccc2cc(C(C)Nc3ncnc4[nH]cnc34)n(-c3ccccc3)c(=O)c12 (stereo in doubt) [Compound 8, (S)-3-(1-((9H-purin-6-yl)amino)ethyl)-2-phenyl-8-vinylisoquinolin-1(2H)-one]	< 100	< 100	< 10000	< 10000	< 100				
C[C@@H](Nc1ncnc2[nH]cnc12)c1cc2cccc(-c3cccnc3)c2c(=O)n1C1CC1 (stereo in doubt) [Compound 13]	< 100	< 100	< 10000	< 1000		< 100			
C[C@@H](Nc1ncnc2[nH]cnc12)c1cc2cccc(-c3cccc(F)c3)c2c(=O)n1-c1ccccc1 (stereo in doubt) [Compound 25]	< 100	< 100	< 10000	< 10000		< 100			
CO[C@H]1C[C@@H]2CC[C@@H](C)[C@@](O)(O2)C(=O)C(=O)N2CCCC[C@H]2C(=O)O[C@H]([C@H](C)C[C@@H]2CC[C@@H](OCCO)[C@H](OC)C2)CC(=O)[C@H](C)/C=C(\C)[C@@H](O)[C@@H](OC)C(=O)[C@H](C)C[C@H](C)/C=C/C=C/C=C/1C [RAD001, everolimus]							ameliorate lupus symptoms		
O=C(O)CCCc1ccc(N(CCCl)CCCl)cc1 [chlorambucil]								largely hydrolyzed over the course of 24 hours	
CC(C)[N+](C)(CCOC(=O)C1c2ccccc2Oc2ccccc21)C(C)C [propantheline]									intermediate plasma stability
CCCOc1cc(N)ccc1C(=O)OCCN(CC)CC [propoxycaine]									low plasma stability
